Assay results: PubChem BioAssay (NCI)
“And” between values parts separate entries of the source, which are not always exact repeats. Equal entries are not always repeated.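 A five-concentration, 48-hour dose response in 96-well plates underlies each endpoint, interpolated linearly between surrounding concentrations. GI50 = concentration required for 50% inhibition of growth. The concentration for full growth arrest is given as TGI.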

Legend:
Test in all cases: inhibition of tumour cell growth, NCI panel, 48 h
[1] = test system: BT-549 breast
[2] = test system: MCF7 breast
[3] = test system: NCI-H522 lung
[4] = test system: HCT-15 colon
[5] = test system: SN12C renal
[6] = test system: CAKI-1 renal
[7] = test system: OVCAR-5 ovarian
[8] = test system: SW-620 colon
[9] = test system: MDA-MB-231 breast
[10] = test system: SK-OV-3 ovarian
[11] = test system: U251 CNS
[12] = test system: SNB-75 CNS
[13] = test system: SR leukemia
[14] = test system: MDA-MB-435

SMILES	TGI [1]	TGI [2] [µM]	TGI [3] [µM]	TGI [4] [µM]	TGI [5]	TGI [6] [µM]	TGI [7] [µM]	TGI [8] [µM]	TGI [9]	TGI [10] [µM]	TGI [11] [µM]	TGI [12]	TGI [13]	TGI [14] [µM]	GI50 [1]	GI50 [8]	GI50 [12]	GI50 [13]
COC(=O)c1cc(C#N)[nH]c1-c1ccsc1	> 100 µM	> 100	> 100	> 100	> 100 µM	> 100	> 100	> 100	> 100 µM	> 100	> 100	> 100 µM	> 100 µM	> 100				
C[C@]12CC[C@@H]3c4ccc(OC(=O)c5ccccc5)cc4CC[C@H]3[C@@H]1CCC2OC(=O)c1cccc2c(=O)c3ccccc3[nH]c12 (stereo partly specified)	38 µM	30.2	45.2	29	30.1 µM	58.9	46.1	24.5	40.8 µM	74.2	29.9	55.8 µM	> 100 µM	15.4				
CCCSc1cc(Cl)c(C)cc1S(=O)(=O)n1cc[nH]c1=O	> 100 µM	> 100	> 100	> 100	> 100 µM	> 100	> 100	> 100	> 100 µM	> 100	> 100	> 100 µM	> 100 µM	> 100				
CC1OC(OC2C(OC(=O)[C@]34CCC(C)(C)C[C@H]3C3=CC[C@@H]5[C@@]6(C)CC[C@H](OC7OC(C(=O)O)C(O)C(O)C7O)C(C)(C)[C@@H]6CC[C@@]5(C)[C@]3(C)CC4)OCC(O)C2O)C(O)C(O)C1OC1OCC(O)C(O)C1O (stereo partly specified)	> 100 µM and 37.3 µM	> 100	> 100	> 100	50.5 µM and 40.5 µM	> 100	> 100	> 100	60.4 µM and 35.4 µM	> 100	> 100	> 100 µM and 76.8 µM	> 100 µM and 77.1 µM	34.8	40 µM and 18.4 µM	98 µM and 45.1 µM	80.6 µM and 24.7 µM	46.2 µM and 22.5 µM
O=S(=O)(O)c1cc(S(=O)(=O)O)c2c(N=Nc3cccc4ccccc34)c(O)ccc2c1	> 100 µM	> 100	> 100	> 100	> 100 µM	> 100	> 100	> 100	> 100 µM	> 100	> 100	> 100 µM	> 100 µM	> 100				
COC1Cc2c(C)c(OC(C)=O)c3cccnc3c2O1 (stereo unspecified)	41.5 µM	39.7	13.6	22.1	37.8 µM	> 100	32.7	27.9	> 100 µM	> 100	> 100	31.7 µM	61.2 µM	32.6				
CCCCCCCC1c2cc3[nH]c(cc4nc(cc5[nH]c(cc(n2)[C@@]1(C)CC(=O)N(C)C)c(C)c5CCC(=O)O)C(CCC(=O)O)=C4C)cc3C (stereo partly specified)	28.6 µM	92.3	37.8	39.5	76.1 µM	> 100	55.5	> 100	33.7 µM	> 100	32.9	40 µM	44.6 µM	92.5				
N#Cc1c(C#N)c(-c2cccc([N+](=O)[O-])c2)n(-c2ccccc2)c1N	> 100 µM	> 100	> 100	> 100	> 100 µM	> 100	> 100	> 100	> 100 µM	> 100	> 100	61 µM	> 100 µM	> 100				
CC(=O)C1(c2ccccc2)CCN(Cn2sc3nc(C)cc(C)c3c2=O)CC1	> 100 µM	> 100	29	72.8	49.8 µM	> 100	39	> 100	> 100 µM	> 100	> 100	57.3 µM	> 100 µM	59.8				
COC(=O)CCc1ccc2c(c1)CCC2	> 100 µM	> 100	> 100	> 100	> 100 µM	> 100	> 100	> 100	> 100 µM	> 100	> 100	> 100 µM	> 100 µM	> 100				
CCOC(=O)C(NNS(=O)(=O)c1ccc(C)cc1)S(=O)(=O)C(F)(F)C(F)(F)C(F)(F)C(F)(F)F (stereo unspecified)	> 100 µM	> 100	> 100	> 100	> 100 µM	> 100	> 100	> 100	> 100 µM	> 100	> 100	> 100 µM	> 100 µM	> 100				
O=C1c2ccccc2C(=O)c2c(OCC3CO3)ccc(OCC3CO3)c21 (stereo unspecified)	15.5 µM	2.59	13	4.5	4.74 µM	10.6	30.9	5.68	> 34 µM	36.2	12.1	29.9 µM	1.55 µM	7.61				
Cc1c(O)c(OC2OC(CO)C(O)C(O)C2O)cc2c1CC[C@@H]1C2(C)C(=O)C[C@]2(C)[C@@H]([C@@](C)(O)C(O)/C=C/C(C)(C)O)[C@H](O)C[C@@]12C (stereo partly specified)	> 100 µM	> 100	> 100	> 100	> 100 µM	> 100	> 100	> 100	> 100 µM	> 100	> 100	> 100 µM	> 100 µM	> 100				
